PubChem BioAssay AID248 (DTP/NCI, 2004)
Several values for one entry are separate records, joined by “and”; a condition that tells them apart may be missing. Identical values can stand only once. Inconclusive results and toxic doses are left out. No stated cut-off is given here; in the data, active means T/C of 150% or more; inactive means T/C below 125%.

Test system: L1210 leukemia ip in BDF1 mice, survival T/C
Assay: NCI In Vivo Anticancer Drug Screen. Data for tumor model L1210 Leukemia (intraperitoneal) in B6D2F1 (BDF1) mice
Conditions: endpoint: mean survival time, higher = longer survival
How it was run: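 Ratio derived from survival: compound-dosed mice over vehicle-dosed mice, all bearing a transplantable tumor.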

[1] = dose: 100.0 mg/kg/injection, schedule: Q01DX009 (ip), vehicle: saline
[2] = dose: 100.0 mg/kg/injection, schedule: Q04DX003 (ip), vehicle: saline
[3] = dose: 200.0 mg/kg/injection, schedule: Q04DX003 (ip), vehicle: saline
[4] = dose: 400.0 mg/kg/injection, schedule: Q04DX003 (ip), vehicle: saline
[5] = dose: 100.0 mg/kg/injection, schedule: Q01DX009 (ip), vehicle: Klucel (hydroxypropylcellulose) (HPC)
[6] = dose: 100.0 mg/kg/injection, schedule: Q04DX003 (ip), vehicle: Klucel (hydroxypropylcellulose) (HPC)
[7] = dose: 200.0 mg/kg/injection, schedule: Q01DX009 (ip), vehicle: Klucel (hydroxypropylcellulose) (HPC)
[8] = dose: 200.0 mg/kg/injection, schedule: Q04DX003 (ip), vehicle: Klucel (hydroxypropylcellulose) (HPC)
[9] = dose: 400.0 mg/kg/injection, schedule: Q04DX003 (ip), vehicle: Klucel (hydroxypropylcellulose) (HPC)
[10] = dose: 100.0 mg/kg/injection, schedule: Q01DX009 (ip), vehicle: saline with Tween-80
[11] = dose: 100.0 mg/kg/injection, schedule: Q04DX003 (ip), vehicle: saline with Tween-80
[12] = dose: 200.0 mg/kg/injection, schedule: Q01DX009 (ip), vehicle: saline with Tween-80
[13] = dose: 200.0 mg/kg/injection, schedule: Q04DX003 (ip), vehicle: saline with Tween-80
[14] = dose: 100.0 mg/kg/injection, schedule: Q04DX002 (ip), vehicle: saline with Tween-80
[15] = dose: 200.0 mg/kg/injection, schedule: Q04DX002 (ip), vehicle: saline with Tween-80
[16] = dose: 400.0 mg/kg/injection, schedule: Q04DX002 (ip), vehicle: saline with Tween-80
[17] = dose: 400.0 mg/kg/injection, schedule: Q01DX009 (ip), vehicle: saline with Tween-80
[18] = dose: 400.0 mg/kg/injection, schedule: Q04DX003 (ip), vehicle: saline with Tween-80
[19] = dose: 6.25 mg/kg/injection, schedule: Q04DX002 (ip), vehicle: saline with Tween-80
[20] = dose: 12.5 mg/kg/injection, schedule: Q04DX002 (ip), vehicle: saline with Tween-80
[21] = dose: 100.0 mg/kg/injection, schedule: Q01DX001 (ip), vehicle: saline
[22] = dose: 200.0 mg/kg/injection, schedule: Q01DX001 (ip), vehicle: saline
[23] = dose: 100.0 mg/kg/injection, schedule: Q01DX001 (ip), vehicle: other
[24] = dose: 200.0 mg/kg/injection, schedule: Q01DX001 (ip), vehicle: other
[25] = dose: 50.0 mg/kg/injection, schedule: Q01DX001 (ip), vehicle: carboxymethylcellulose (CMC)
[26] = dose: 100.0 mg/kg/injection, schedule: Q01DX001 (ip), vehicle: carboxymethylcellulose (CMC)
[27] = dose: 200.0 mg/kg/injection, schedule: Q01DX001 (ip), vehicle: carboxymethylcellulose (CMC)
[28] = dose: 400.0 mg/kg/injection, schedule: Q01DX001 (ip), vehicle: carboxymethylcellulose (CMC)

Measured: T/C

COC(=O)CCCNC(=O)/C=C1/c2cc(OC)c(OC)cc2CCC1S(=O)(=O)OC (stereo unspecified)
inactive: [1] 100 % of control | [2] 105 % of control | dose: 200.0 mg/kg/injection, schedule: Q01DX009 (ip), vehicle: saline 110 % of control | [3] 97 % of control | dose: 400.0 mg/kg/injection, schedule: Q01DX009 (ip), vehicle: saline 88 % of control | [4] 100 % of control

O=C1NC2(C=CC(Br)CC2)C(=O)C12CCCCC2 (stereo unspecified) (tested in a mixture with another compound)
inactive: dose: 150.0 mg/kg/injection, schedule: Q01DX001 (ip), vehicle: saline 94 % of control

Cc1ccc(Cl)cc1NC(=O)Nc1ccccc1Cl
inactive: [5] 92 % of control | [6] 101 % of control | [7] 91 % of control | [8] 95 % of control | [9] 93 % of control

O=[N+]([O-])c1ccc(OCc2ccc(S(=O)(=O)F)c(Cl)c2)c(Cl)c1
inactive: dose: 100.0 mg/kg/injection, schedule: Q01DX009 (ip), vehicle: other 101 % of control | [2] 101 % of control | dose: 200.0 mg/kg/injection, schedule: Q01DX009 (ip), vehicle: other 108 % of control | [3] 104 % of control | dose: 400.0 mg/kg/injection, schedule: Q01DX009 (ip), vehicle: other 94 % of control | [4] 88 % of control

O=C(O/N=C(\C(=O)c1ccccc1)c1ccccc1)c1ccc(Br)cc1
inactive: dose: 50.0 mg/kg/injection, schedule: Q01DX009 (ip), vehicle: saline with Tween-80 97 % of control | [10] 92 % of control | [11] 94 % of control | [12] 89 % of control | [13] 87 % of control

O=C(O)/C(Br)=C/C(=O)c1ccccc1
inactive: dose: 75.0 mg/kg/injection, schedule: Q01DX001 (ip), vehicle: steriod suspending solution 106 % of control | dose: 300.0 mg/kg/injection, schedule: Q01DX001 (ip), vehicle: steriod suspending solution 109 % of control

O=C(O)c1c2ccc(=O)cc-2oc2cc(O)ccc12
inactive: [6] 92 % of control | [8] 92 % of control | [9] 89 % of control

Cc1ccc(/C(C#N)=C/c2cccc([N+](=O)[O-])c2)cc1
inactive: [14] 95 % of control | [15] 88 % of control | [16] 98 % of control

CCC(=O)C(CC)c1cccc(OC)c1 (stereo unspecified)
inactive: [10] 100 % of control | [11] 100 % of control | [12] 94 % of control | [13] 97 % of control | [17] 114 % of control | [18] 97 % of control

CCOC(=O)c1n[nH]c2ccccc12
inactive: [14] 101 % of control | [15] 106 % of control | [16] 97 % of control

C[N+](C)(C)C1(Cc2ccccc2)c2ccccc2-c2ccc(Br)cc21 (stereo unspecified)
inactive: dose: 25.0 mg/kg/injection, schedule: Q01DX009 (ip), vehicle: saline 104 % of control | dose: 25.0 mg/kg/injection, schedule: Q04DX003 (ip), vehicle: saline 102 % of control | dose: 50.0 mg/kg/injection, schedule: Q01DX009 (ip), vehicle: saline 95 % of control | dose: 50.0 mg/kg/injection, schedule: Q04DX003 (ip), vehicle: saline 97 % of control | [1] 94 % of control | [2] 98 % of control and 100 % of control

COC1=C(N=[N+]=[N-])C(=O)c2ccccc2C1=O
inactive: [19] 104 % of control | [20] 96 % of control

CCOC(COC(=O)c1ccccc1C(=O)O)c1ccccc1 (stereo unspecified)
inactive: [11] 94 % of control | [13] 97 % of control | [18] 92 % of control

O=CC(NC(=O)C(O)C(O)C(O)C(O)CO)C(O)C(O)C(O)CO (stereo unspecified)
inactive: [2] 102 % of control | [3] 97 % of control | [4] 91 % of control

Cc1ccn2c(=O)cc(O)nc2c1
inactive: dose: 50.0 mg/kg/injection, schedule: Q01DX001 (ip), vehicle: saline 101 % of control | [21] 98 % of control | [22] 92 % of control | dose: 400.0 mg/kg/injection, schedule: Q01DX001 (ip), vehicle: saline 98 % of control

CC(=O)Nc1ccc2ncccc2c1[N+](=O)[O-]
inactive: [23] 102 % of control | [24] 100 % of control | dose: 400.0 mg/kg/injection, schedule: Q01DX001 (ip), vehicle: other 100 % of control

Cc1c(-c2ccccc2Br)nc2ccccc2c1C(=O)O
inactive: [21] 96 % of control | [22] 89 % of control

O=S(=O)(F)c1cc(Cl)ccc1CBr
inactive: dose: 25.0 mg/kg/injection, schedule: Q04DX002 (ip), vehicle: saline with Tween-80 96 % of control | dose: 50.0 mg/kg/injection, schedule: Q04DX002 (ip), vehicle: saline with Tween-80 100 % of control | [14] 93 % of control | [15] 104 % of control | [16] 101 % of control

CC(=O)[O][Sn]([CH2]C1CCCCC1)([CH2]C1CCCCC1)[CH2]C1CCCCC1
inactive: [19] 96 % of control | [20] 96 % of control

CCOc1ccc(-c2nnc(Nc3ccc(S(=O)(=O)N4CCCCC4)cc3)s2)cc1
inactive: [10] 87 % of control | [14] 96 % of control | [15] 93 % of control | [16] 90 % of control

CN(C)c1ccc(/C=N/N=C(N)N)cc1
inactive: dose: 15.0 mg/kg/injection, schedule: Q01DX Z (ip), vehicle: saline 89 % of control | dose: 30.0 mg/kg/injection, schedule: Q01DX Z (ip), vehicle: saline 92 % of control | dose: 30.0 mg/kg/injection, schedule: Q01DX Z (oral), vehicle: other 100 % of control | dose: 60.0 mg/kg/injection, schedule: Q01DX Z (ip), vehicle: saline 100 % of control | dose: 60.0 mg/kg/injection, schedule: Q01DX Z (oral), vehicle: other 97 % of control | dose: 120.0 mg/kg/injection, schedule: Q01DX Z (oral), vehicle: other 109 % of control

CCC(C)SC1=NC(N)=NC2=NC=NC21 (stereo unspecified)
inactive: dose: 50.0 mg/kg/injection, schedule: Q04DX003 (ip), vehicle: carboxymethylcellulose (CMC) 118 % of control | dose: 100.0 mg/kg/injection, schedule: Q04DX003 (ip), vehicle: carboxymethylcellulose (CMC) 122 % of control

O=C(OC1CC2CC1C1CCCCC21)c1ccc([N+](=O)[O-])cc1 (stereo unspecified)
inactive: [25] 94 % of control | [26] 105 % of control | [27] 100 % of control | [28] 96 % of control

Clc1ccc(N(c2ccccc2)c2ccccc2)cc1
inactive: [26] 115 % of control | [27] 100 % of control | [28] 108 % of control

CC1=C(C)CP(C)(=O)C1
inactive: [11] 93 % of control | [13] 91 % of control | [18] 86 % of control

CCOC(=O)C(Br)(C(=O)OCC)C(c1ccccc1)c1ccccc1
inactive: [10] 98 % of control | [12] 96 % of control | [17] 93 % of control

c1ccc2nc3ccccc3c-2cc1
inactive: dose: 100.0 mg/kg/injection, schedule: Q04DX003 (ip), vehicle: acetone 95 % of control | dose: 200.0 mg/kg/injection, schedule: Q04DX003 (ip), vehicle: acetone 98 % of control | dose: 400.0 mg/kg/injection, schedule: Q04DX003 (ip), vehicle: acetone 95 % of control

CCCCOC(OCCCC)c1ccccc1
inactive: [25] 95 % of control | [26] 88 % of control

c1ccc2c(c1)CCc1cc3c(nc1-2)-c1ccccc1CC3
inactive: [5] 97 % of control | [6] 100 % of control | [7] 98 % of control | [8] 100 % of control | dose: 400.0 mg/kg/injection, schedule: Q01DX009 (ip), vehicle: Klucel (hydroxypropylcellulose) (HPC) 95 % of control | [9] 94 % of control

CN(C)/N=N/c1nc[nH]c1C(=O)NCCc1ccccc1
inactive: [23] 108 % of control | [24] 108 % of control

COc1ccc(CC(=O)NCCc2ccccc2)cc1
inactive: [26] 96 % of control | [27] 98 % of control | [28] 96 % of control
